This is an account of results in patent US20060258578A1, “Pharmaceutical composition” (The University of Zurich, priority 2005, published 2006).

The structures appear in SMILES notation. Entries after “also recorded” stand apart in the source; their conditions may differ.

Assay [1] concerns MC3T3-E1 cells. Put plainly: maturation of preosteoblastic cells determined by alkaline phosphatase activity. The assay is classed as cell-based. The settings on record: for effect on maturation of MC3T3-E1 cells (alkaline phosphatase activity), solvent comparison: increasing amounts of solvent, triacetin 0,1 to 6 mM (FIG. 3). As to the method:
(§1) MC3T3-E1 cells were grown in an alpha-modified Minimum Essential Medium (Life Technologies, Inc., Grand Island, N.Y.) containing 10% fetal calf serum (Life Technologies, Inc.), 50 μg/ml gentamycin, and 50 μg/ml ascorbic acid. C3H10T1/2 cells were grown in basal medium Eagle, and 50 μg/ml gentamycin. To examine the action of triacetin on both cell lines, 1×10^5 cells per well were plated in 6-well plates and triacetin subsequently added. Medium exchange was performed after 3 days and alkaline phosphatase (ALP) was determined according to Lowry, O. et al. [J. Biol. Chem. 207 (1954) 19-37]: p-nitrophenol liberated was converted to p-nitrophenylate by adding 400 μl of 1 M NaOH, which was quantitated by measuring the absorbance at 410 nm (epsilon=17500/mol×cm). Alkaline phosphatase activity was normalized to total protein and expressed as nmol nitrophenylate generated per min per mg protein.
First, to verify the osteoinductive activity of triacetin an embryonic, murine, mesenchymal stem cell line C3H10T1/2 and a preosteoblastic cell line MC3T3-E1 were used and cultured as described above. C3H10T1/2 cells can differentiate into cartilage, bone or adipose cells, whereas MC3T3-E1 produces and releases autologous BMP. Alkaline phosphatase activity was used as a marker for the differentiation into the osteoblastic lineage.
Additionally, the effect of various plasticizers/solvents regarding their osteogenetic effect was compared to that of triacetin. MC3T3-E1 cells were grown as described above and treated with increasing amounts of different solvents and the effect on the maturation of MC3T3-E1 cells determined after 6 days by alkaline phosphatase activity.
To determine the effect of external BMP, C3H10T1/2 cells and MC3T3-E1 cells were plated at day one in 4 ml medium and ALP determination performed on day 6. On day 1 rhBMP was added to the cells from a stock solution of 2 mg/ml rhBMP-2 in 1 mM HCl to a concentration of 1 μg/ml. triacetin to a final concentration of 2 and 4 mM was added to the cells at the same time point from a stock solution of 200 mM triacetin in respective medium. After application triacetin and rhBMP was mixed by gently swirling the entire 6 well plate. In a separate experiment, the cells were treated with triacetin only.
In a similar manner, the effect of external rhBMP-4 on the maturation of MC3T3-E1 cells was determined by alkaline phosphatase activity. MC3T3-E1 cells were treated with triacetin in the presence or absence of 60 ng rhBMP-4/ml of the medium.
MC3T3-E1 cells were treated with triacetin in the presence or absence of 60 ng rhBMP-7/ml of the medium.

In assay [2] the test system is C3H10T1/2 cells. Put plainly: differentiation of mesenchymal stem cells towards osteoblastic lineage determined by alkaline phosphatase activity. The assay is classed as cell-based, murine. As for the experimental part:
as §1
First, to verify the osteoinductive activity of triacetin an embryonic, murine, mesenchymal stem cell line C3H10T1/2 and a preosteoblastic cell line MC3T3-E1 were used and cultured as described above. C3H10T1/2 cells can differentiate into cartilage, bone or adipose cells, whereas MC3T3-E1 produces and releases autologous BMP. […]
The differentiation of the mesenchymal cell like cell line (C3H10T1/2) towards an osteoblastic lineage was determined by alkaline phosphatase activity. […]

Assay [3] has as its system MC3T3-E1 cells. The assay is described as follows: mineralization visualized by Alizarin red-S staining. The settings on record: MC3T3-E1, 4 weeks, 5 mM glycerol phosphate, 2.0 and 4.0 mM triacetin. It is filed as cell-based. As to the method:
FIG. 2A: MC3T3-E1 cells treated with increasing amounts of triacetin and the maturation determined after 6 days by alkaline phosphatase activity. FIG. 2B: Mineralization by MC3T3-E1 cells seeded on a 6-well plate visualized by Alizarin S-staining. The MC3T3-E1 cells were cultured for 4 weeks in the presence of 5 mM glycerol phosphate. From the left: no triacetin was added, 2.0 mM triacetin was added, 4.0 mM triacetin.
Mineralization was determined in MC3T3-E1 cells grown in the same medium supplemented with 5 mM glycerol phosphate and 1 μg/ml rhBMP-2 or 60 ng/ml of rhBMP-4 of rhBMP-7. Alizarin red-S staining was performed after 4 weeks according to Bodine, P. V. N., et al. [J. Bone Mineral Res. 11 (1996) 806-819].

For `CN(C)C=O` [N,N-dimethylformamide, reference compound], in assay [1] (after 6 days), the “effect on maturation of MC3T3-E1 cells (alkaline phosphatase activity), solvent comparison” value (“effect on maturation of MC3T3-E1 cells” below) is “no positive effect”.

Consider `C[S+](C)[O-]` [dimethylsulfoxide, reference compound], for which, in assay [1] (after 6 days), the “effect on maturation of MC3T3-E1 cells” value is given as “no positive effect”.

In the case of `CCO` [ethanol, reference compound], in assay [1] (after 6 days), the “effect on maturation of MC3T3-E1 cells” value was “no positive effect”.

For `CO` [methanol, reference compound], the “effect on maturation of MC3T3-E1 cells” value in assay [1] (after 6 days) is recorded as “no positive effect”.

Turning to `CC(=O)OCC(COC(C)=O)OC(C)=O` [triacetin, glyceryl triacetate], in assay [2] (C3H10T1/2, 2 mM and 4 mM, absence of rhBMP), the “alkaline phosphatase activity, triacetin alone” value is listed as “increase in alkaline phosphatase activity; also recorded: able to induce alkaline phosphatase activity”. In addition, the “synergistic effect with rhBMP-2 on alkaline phosphatase activity” value in assay [2] (C3H10T1/2, triacetin 2 and 4 mM with 1 μg rhBMP-2/ml, day 6) is recorded as “further enhanced; also recorded: works synergistically”. Moreover, the “increase of alkaline phosphatase activity” value in assay [1] (MC3T3-E1, 0,0 to 4 mM triacetin, after 6 days) was 2.0-7.0 factor. The “synergistic effect with rhBMP4 on maturation (alkaline phosphatase activity)” value in assay [1] (MC3T3-E1, triacetin with 60 ng rhBMP4/ml (FIG. 5)) was “synergistic effect”. For the same molecule, the “synergistic effect with rhBMP-7 on maturation (alkaline phosphatase activity)” value in assay [1] (MC3T3-E1, triacetin with 60 ng rhBMP-7/ml (FIG. 6)) is given as “synergistic bone forming effect”. In assay [1] (MC3T3-E1, triacetin with 1 μg rhBMP-2/ml (FIG. 4)), the “synergistic effect with rhBMP-2 on maturation (alkaline phosphatase activity)” value was “synergistic effect”. Moreover, in assay [1] (after 6 days), the “effect on maturation of MC3T3-E1 cells” value is “increases in a concentration dependent manner”. In assay [3], the “mineralisation by alizarin-S-staining” value is recorded as “increased mineralisation”.
